Values quoted from earlier work, collected in article PMC6957711 (Journal of Alzheimer's Disease, 2020).

Tests used:
[1] = Phase III clinical studies
tau = details: in vitro

In the case of `CN(C)c1ccc2c(c1)Sc1cc(N(C)C)ccc1N2.CS(=O)(=O)O.CS(=O)(=O)O` [LMTX, Leuco-Methylthioninium Bis(Hydromethanesulphonate)], the clinical endpoints [1] is listed as “failed to meet its clinical endpoints”.
In the case of `CN(C)c1ccc2nc3ccc(=[N+](C)C)cc-3sc2c1` [methylene blue], the tau fibril formation (tau) is given as “inhibits” and the tau oligomer formation (tau) is given as “accelerates”.
